In patent US10335411B2, “Administration of ubiquitin-activating enzyme inhibitor and radiation” (Millennium Pharmaceuticals, Inc., priority 2014, dated 2019):

Columns and labels:
HN-13-0014 xenograft = HN-13-0014 xenograft model, Compound 1 and radiation; type: in vivo, mice
Source text: (§1) The HN-13-0014 xenograft model is a human head and neck primary tumor model. Approximately nine week old female BALB/c nude (Shanghai Sino-British SIPPR/BK Laboratory Animal Co., LTD.) mice were implanted subcutaneously with approximate 30 mm^3 HN-13-0014 tumor slices in the right flank. When the mean tumor volume reached approximately 162 mm^3, the animals were randomized into 10 treatment groups (n=8/group).
Compound 1 [((1R,2R,3S,4R)-2,3-dihydroxy-4-(2-(3-(trifluoromethylthio) ? phenyl)pyrazolo[1,5-a]pyrimidin-7-ylamino)cyclopentyl)methyl sulfamate] is formulated in 10% HPbCD in sterile water and administered intravenously on a BIW (twice/week schedule; Monday and Thursday, i.e. days 0, 3, 7, 10, 14, 17) for 3 weeks in the HN-13-0014 and LU-01-0030 (first study) models. Compound 1 formulation was prepared weekly and stored at room temperature in the dark.
(§2) Beam-focused radiation was delivered using a either 1 or 2 Gray dosed on days 0, 1, 7, and 8 or on days 0, 3, 7, and 10 in the HN-13-0014 and LU-01-0030 (first study) models. A Rad Source RS-2000 X-ray irradiator was used for therapy (Rad Source). Before radiation, animals were anesthetized by i.p. injection using 1.0% sodium pentobarbital at 80 mg/kg (Vendor: Sigma). Focused radiation was applied to each mouse at 1 Gy/min.
(§3) Tumors were measured twice weekly using vernier calipers. Tumor volumes were calculated using the following formula: (0.5×[length×width^2]). Treatment groups and dosing/treatment schedules are indicated in Tables 1a, 2a, 3a, 4a, and 5a below. Tumor size and body weight are measured approximately twice a week for the duration of the study. Mice are euthanized when their tumor volume reached approximately 1000 mm^3. Tumor growth continued to be monitored after the dosing period in some studies. In Tables 1a, 2a, 3a, 4a, and 5a tumor volumes are shown for HN-13-0014 (day 21), LU-01-0030 (day 21), the second LU-01-0030 study (day 20), LU-01-0266 (day 20), ST-02-0004 (day 21) and FIN-13-0007 (day 24), respectively. Average tumor volume is reported as a function of time for selected groups of selected studies.
(§4) Measurements from day 0 to day 20, day 21 or day 24 are analyzed as specified in Tables below. All tumor volumes have a value of 1 added to them before log10 transformation. For each animal, the log tumor volume at day 0 is subtracted from the log tumor volume on the subsequent days. This difference vs. time is used to calculate an area under the curve (AUC) for each animal using the trapezoid rule. In instances when an animal in a treatment group is removed early from the study, the last observed tumor value is carried forward through all subsequent time points. The synergy score for the combination of agents A and B is defined as 100*(mean(AUCAB)−mean(AUCA)−mean(AUCB)+mean(AUCctl))/mean(AUCctl): where AUCAB, AUCA, AUCB, and AUCctl are the AUC values for animals in the combination group, the A group, the B group, and the control group, respectively. The standard error of the synergy score is computed based on the variation in the AUC values among the animals. […] If the P-value is above 0.05, then the combination is considered to be additive. If the P-value is below 0.05, and the synergy score is less than zero, then the combination is considered to be synergistic. If the P-value is below 0.05 and the synergy score was greater than zero, but the mean AUC for the combination was lower than the lowest mean AUC among the two single agent treatments, then the combination was sub-additive. If the P-value is below 0.05 and if the synergy score was greater than zero, and the mean AUC for the combination was greater than the mean AUC for at least one of the single agent treatments, then the combination was antagonistic.

HN-13-0007 xenograft = HN-13-0007 xenograft model, Compound 1 and radiation; type: in vivo, mice; conditions: for Classification / Synergy score: through Day 24
Source text: as §1, with “HN-13-0007” for “HN-13-0014”, “human primary” for “human”, “[…] cancer” for “primary tumor”, “130” for “162”
Compound 1 [((1R,2R,3S,4R)-2,3-dihydroxy-4-(2-(3-(trifluoromethylthio) ? phenyl)pyrazolo[1,5-a]pyrimidin-7-ylamino)cyclopentyl)methyl sulfamate] is formulated in 10% HPbCD in sterile water and administered intravenously on days 0, 3, 7, 10, 14, 17 in the LU-01-0266 and HN-13-0007 models and on days 0, 3, 8, 11, 15, 18 in the ST-02-0004 model and in the second study with the LU-01-0030 model. Compound 1 formulation was prepared weekly and stored at room temperature in the dark.
as §2, with “using” for “using a either 1 or”, “LU-01-0266” for “HN-13-0014”, “HN-13-0007” for “LU-01-0030 (first study)”, “models. In the ST-02-0004 model 2 Gray of radiation was delivered on days 0, 1, 3, and 8.” for “models.”
as §3, §4

[1] = 6.25 mg/kg Compound 1 + 2 Gy Radiation D0, 1, 7, 8
[2] = 6.25 mg/kg Compound 1 + 2 Gy Radiation D0, 3, 7, 10
[3] = 6.25 mg/kg Compound 1 IV BIWx3 + 2 Gy Radiation Beam D 0, 1, 7, 8
[4] = 6.25 mg/kg Compound 1 IV BIWx3 + 2 Gy Radiation Beam D 0, 3, 7, 10
[5] = 15 mg/kg Compound 1 + 2 Gy Radiation D0, 1, 7, 8
[6] = 15 mg/kg Compound 1 + 2 Gy Radiation D0, 3, 7, 10
[7] = 15 mg/kg Compound 1 IV BIWx3 + 2 Gy Radiation Beam D 0, 1, 7, 8
[8] = 15 mg/kg Compound 1 IV BIWx3 + 2 Gy Radiation Beam D 0, 3, 7, 10

## NS(=O)(=O)OC[C@H]1C[C@@H](Nc2ccnc3cc(-c4cccc(SC(F)(F)F)c4)nn23)[C@H](O)[C@@H]1O [Compound 1, ((1R,2R,3S,4R)-2,3-dihydroxy-4-(2-(3-(trifluoromethylthio)phenyl)pyrazolo[1,5-a]pyrimidin-7-ylamino)cyclopentyl)methyl sulfamate]
HN-13-0014 xenograft; [1]
  Classification: Additive (If the P-value is above 0.05, then the combination is considered to be additive)
  Synergy score: 8.6
HN-13-0014 xenograft; [2]
  Classification: Additive (If the P-value is above 0.05, then the combination is considered to be additive)
  Synergy score: 7.7
HN-13-0014 xenograft; [3]
  Tumor Volume Day 21: 392.7 mm^3
HN-13-0014 xenograft; [4]
  Tumor Volume Day 21: 381.9 mm^3
HN-13-0014 xenograft; 6.25 mg/kg Compound 1 IV BIWx3, single agent
  Tumor Volume Day 21: 575.9 mm^3
HN-13-0014 xenograft; [5]
  Classification: Additive (If the P-value is above 0.05, then the combination is considered to be additive)
  Synergy score: 7.9
HN-13-0014 xenograft; [6]
  Classification: Additive (If the P-value is above 0.05, then the combination is considered to be additive)
  Synergy score: 3.2
HN-13-0014 xenograft; [7]
  Tumor Volume Day 21: 372.4 mm^3
HN-13-0014 xenograft; [8]
  Tumor Volume Day 21: 356.2 mm^3
HN-13-0014 xenograft; 15 mg/kg Compound 1 IV BIWx3, single agent
  Tumor Volume Day 21: 539.9 mm^3
HN-13-0014 xenograft; Compound 1 with 2 Gy radiation
  combination effect: additive combination effect
HN-13-0014 xenograft; single agent, IV at 6.25 and 15 mg/kg BIW for 3 weeks
  anti-tumor activity compared to vehicle control: modest anti-tumor activity
HN-13-0007 xenograft; [3]
  Tumor Volume Day 24: 318.8 mm^3
HN-13-0007 xenograft; [4]
  Tumor Volume Day 24: 340 mm^3
HN-13-0007 xenograft; 6.25 mg/kg Compound 1 IV BIWx3 = D 0, 3, 7, 10, 14, 17, single agent
  Tumor Volume Day 24: 442.4 mm^3
HN-13-0007 xenograft; [7]
  Tumor Volume Day 24: 358.3 mm^3
HN-13-0007 xenograft; [8]
  Tumor Volume Day 24: 299.7 mm^3
HN-13-0007 xenograft; 15 mg/kg Compound 1 IV BIWx3 = D 0, 3, 7, 10, 14, 17, single agent
  Tumor Volume Day 24: 362.1 mm^3
HN-13-0007 xenograft; Compound 1 at 15 mg/kg as single agent
  tumor growth inhibition, single agent: minimal tumor growth inhibition
HN-13-0007 xenograft; Compound 1 with 2 Gy radiation
  combination effect: additive combination effect
HN-13-0007 xenograft; single agent, IV at 6.25 mg/kg for 3 weeks on Days 0, 3, 7, 10, 14, 17
  anti-tumor activity compared to the vehicle control: no anti-tumor activity
HN-13-0007 xenograft; [1]
  Classification: Additive (If the P-value is above 0.05, then the combination is considered to be additive)
  Synergy score: −20
HN-13-0007 xenograft; [2]
  Classification: Additive (If the P-value is above 0.05, then the combination is considered to be additive)
  Synergy score: −24
HN-13-0007 xenograft; [5]
  Classification: Additive (If the P-value is above 0.05, then the combination is considered to be additive)
  Synergy score: 24
HN-13-0007 xenograft; [6]
  Classification: Additive (If the P-value is above 0.05, then the combination is considered to be additive)
  Synergy score: −13
